Reference: patent publication US20110053916A1 (Vertex Pharmaceuticals Incorporated, priority 2009, published 2011)

Molecular target: T1, PknB (Mycobacterium tuberculosis, UniProt P9WI81)
T1 construct: made in house
Assay: biochemical
Parameters: species or system M. tuberculosis
Settings: 3 nM PknB, 6 uM GarA, 3 μM ATP, 30 min; competitive tight-binding fit; several symbols in a cell = repeat determinations

T1 sequence (P9WI81 whole entry): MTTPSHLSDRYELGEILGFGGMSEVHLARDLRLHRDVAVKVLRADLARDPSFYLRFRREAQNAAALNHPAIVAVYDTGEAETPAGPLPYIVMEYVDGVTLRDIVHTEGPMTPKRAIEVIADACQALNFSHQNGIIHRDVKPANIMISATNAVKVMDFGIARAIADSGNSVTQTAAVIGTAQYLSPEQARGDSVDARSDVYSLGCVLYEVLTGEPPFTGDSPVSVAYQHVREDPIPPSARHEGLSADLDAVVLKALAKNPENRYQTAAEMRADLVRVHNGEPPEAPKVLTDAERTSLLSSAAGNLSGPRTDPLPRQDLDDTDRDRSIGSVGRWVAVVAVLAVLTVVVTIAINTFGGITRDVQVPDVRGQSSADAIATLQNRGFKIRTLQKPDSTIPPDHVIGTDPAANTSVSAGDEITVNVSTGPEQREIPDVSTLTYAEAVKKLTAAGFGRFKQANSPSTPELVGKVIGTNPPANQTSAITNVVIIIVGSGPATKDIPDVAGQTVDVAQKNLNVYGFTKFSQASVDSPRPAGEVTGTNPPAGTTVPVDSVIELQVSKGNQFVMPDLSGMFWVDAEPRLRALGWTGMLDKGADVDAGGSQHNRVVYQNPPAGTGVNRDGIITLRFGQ

Row | Compound | Ki Values
1 | CC(O)c1cnc(-c2ccc(S(=O)(=O)NC(C)(C)C)s2)nc1Nc1cc(C2CC2)[nH]n1 (stereo not drawn) [Compound 208, 5-[4-[(5-cyclopropyl-1H-pyrazol-3-yl)amino]-5-(1-hydroxyethyl)pyrimidin-2-yl]-N-tert-butyl-thiophene-2-sulfonamide] | B**, B**, B*, B
2 | CS(=O)(=O)c1ccc(-c2nccc(Nc3cc(C4CC4)[nH]n3)n2)cc1 [Compound 15, N-(5-cyclopropyl-1H-pyrazol-3-yl)-2-(4-(methylsulfonyl)phenyl)pyrimidin-4-amine] | A*, A
3 | C#Cc1cnc(-c2ccc(CNC(=O)OC(C)(C)C)s2)nc1Nc1cc(C2CC2)[nH]n1 [Compound 168, Tert-butyl (5-(4-(5-cyclopropyl-1H-pyrazol-3-ylamino)-5-ethynylpyrimidin-2-yl)thiophen-2-yl)methylcarbamate] | B**, B**, B
4 | CS(=O)(=O)c1ccc(-c2ncc(F)c(Nc3cc(C4CC4)[nH]n3)n2)cc1 [Compound 16, N-(5-cyclopropyl-1H-pyrazol-3-yl)-5-fluoro-2-(4-methylsulfonylphenyl)-pyrimidin-4-amine] | A*, A
5 | CCc1cnc(N2CCC(N3CCCCC3)CC2)nc1Nc1cc(C2CC2)[nH]n1 [Compound 44, N-(5-cyclopropyl-1H-pyrazol-3-yl)-5-ethyl-2-[4-(1-piperidyl)-1-piperidyl]-pyrimidin-4-amine] | C, D
6 | C#Cc1cnc(N2CCCCC2)nc1Nc1cc(C2CC2)n[nH]1 [Compound 172, N-(5-Cyclopropyl-1H-pyrazol-3-yl)-5-ethynyl-2-(piperidin-1-yl)pyrimidin-4-amine] | A, B**, B**
7 | O=S(=O)(NCCO)c1ccc(-c2ncc(Cl)c(Nc3cc(C4CC4)[nH]n3)n2)cc1 [Compound 61, 4-[5-chloro-4-[(5-cyclopropyl-1H-pyrazol-3-yl)amino]-pyrimidin-2-yl]-N-(2-hydroxyethyl)benzenesulfonamide] | A, C, D

Same assay, conditions: 3 nM PknB, 6 uM GarA, 3 μM ATP, 30 min; competitive tight-binding fit; several symbols in a cell = repeat determinations; read-out: Ki Values

Row | Compound | Ki [nM]
8 | NC(=O)c1cccc(Nc2nccc(Nc3cc(C4CC4)[nH]n3)n2)c1 [Compound 125, 3-[[4-[(5-cyclopropyl-1H-pyrazol-3-yl)amino]pyrimidin-2-yl]amino]benzamide] | 500 to 1000
9 | NS(=O)(=O)c1ccc(-c2ncc(Cl)c(Nc3cc[nH]n3)n2)s1 [Compound 221, 5-[5-chloro-4-(1H-pyrazol-3-ylamino)-pyrimidin-2-yl]thiophene-2-sulfonamide] | 1 to 10
10 | C#Cc1cnc(-c2ccc(CC#N)cc2)nc1Nc1cc(C2CC2)[nH]n1 [Compound 85, 2-(4-(4-(5-cyclopropyl-1H-pyrazol-3-ylamino)-5-ethynylpyrimidin-2-yl)phenyl)acetonitrile] | 10 to 50
11 | NS(=O)(=O)c1ccc(-c2ncc(Cl)c(Nc3cc(C4CC4)[nH]n3)n2)cc1 [Compound 121, 4-[5-chloro-4-[(5-cyclopropyl-1H-pyrazol-3-yl)amino]-pyrimidin-2-yl]benzenesulfonamide] | 10 to 50
12 | c1ccc(-c2nccc(Nc3cc(C4CC4)n[nH]3)n2)cc1 [Compound 2, N-(5-cyclopropyl-2H-pyrazol-3-yl)-2-phenyl-pyrimidin-4-amine] | 50 to 100
13 | C#Cc1cnc(-c2ccc(S(=O)(=O)NCCNC(=O)C(C)(C)C)s2)nc1Nc1cc(C2CC2)n[nH]1 [Compound 183, N-(2-(5-(4-(5-cyclopropyl-1H-pyrazol-3-ylamino)-5-ethynylpyrimidin-2-yl)thiophene-2-sulfonamido)ethyl)pivalamide] | 50 to 100
14 | C#Cc1cnc(N2CCCCC2C(=O)O)nc1Nc1cc(C2CC2)n[nH]1 (stereo not drawn) [Compound 245, 1-[4-[(5-cyclopropyl-2H-pyrazol-3-yl)amino]-5-ethynyl-pyrimidin-2-yl]piperidine-2-carboxylic acid] | > 4000
15 | CC(C)(C)OC(=O)Nc1ccc(-c2ncc(Cl)c(Nc3cc(C4CC4)[nH]n3)n2)s1 [Compound 324, tert-butyl [[5-[5-chloro-4-[(5-cyclopropyl-1H-pyrazol-3-yl)amino]-pyrimidin-2-yl]-2-thienyl]amino]formate] | 100 to 500
16 | N#Cc1ccc(-c2ncc(Cl)c(Nc3cc(C4CC4)[nH]n3)n2)s1 [Compound 140, 5-(5-chloro-4-(5-cyclopropyl-1H-pyrazol-3-ylamino)pyrimidin-2-yl)thiophene-2-carbonitrile] | 10 to 50
17 | N#CCc1ccc(-c2nccc(Nc3cc(C4CC4)[nH]n3)n2)cc1 [Compound 17, 2-(4-(4-(5-cyclopropyl-1H-pyrazol-3-ylamino)pyrimidin-2-yl)phenyl)acetonitrile] | 10 to 50
18 | CCOC(=O)C(=O)c1ccc(-c2ncc(Cl)c(Nc3cc(C4CC4)[nH]n3)n2)s1 [Compound 189, ethyl 2-(5-(5-chloro-4-(5-cyclopropyl-1H-pyrazol-3-ylamino)pyrimidin-2-yl)thiophen-2-yl)-2-oxoacetate] | 50 to 100
19 | NS(=O)(=O)c1ccc(-c2nc(Nc3cc(C4CC4)n[nH]3)ncc2Cl)s1 [Compound 314, 5-[5-chloro-2-[(5-cyclopropyl-2H-pyrazol-3-yl)amino]-pyrimidin-4-yl]thiophene-2-sulfonamide] | 1 to 10
20 | NS(=O)(=O)c1ccc(-c2ncc(CCCO)c(Nc3cc(C4CC4)[nH]n3)n2)s1 [Compound 319, 5-[4-[(5-cyclopropyl-1H-pyrazol-3-yl)amino]-5-(3-hydroxypropyl)pyrimidin-2-yl]thiophene-2-sulfonamide] | 1 to 10
21 | C#Cc1cnc(-c2ccc(S(C)(=O)=O)cc2)nc1Nc1cc(C2CC2)[nH]n1 [Compound 153, N-(5-Cyclopropyl-1H-pyrazol-3-yl)-5-ethynyl-2-(4-(methylsulfonyl)phenyl)pyrimidin-4-amine] | 10 to 50
22 | CC(C)(C)NS(=O)(=O)c1ccc(-c2ncc(/C=C/CO)c(Nc3cc(C4CC4)[nH]n3)n2)s1 [Compound 218, (E)-N-tert-butyl-5-(4-(5-cyclopropyl-1H-pyrazol-3-ylamino)-5-(3-hydroxyprop-1-enyl)pyrimidin-2-yl)thiophene-2-sulfonamide] | 50 to 100
23 | O=C(O)c1ccc(-c2ncc(Cl)c(Nc3cc(C4CC4)n[nH]3)n2)s1 [Compound 156, 5-(5-chloro-4-(3-cyclopropyl-1H-pyrazol-5-ylamino)pyrimidin-2-yl)thiophene-2-carboxylic acid] | 50 to 100
24 | NC(=O)c1cc(-c2ncc(F)c(Nc3cc(C4CC4)[nH]n3)n2)ccc1Cl [Compound 34, 2-chloro-5-[4-[(5-cyclopropyl-1H-pyrazol-3-yl)amino]-5-fluoro-pyrimidin-2-yl]-benzamide] | 10 to 50
25 | C#Cc1cnc(N2CC[C@H](NC(C)=O)C2)nc1Nc1cc(C2CC2)n[nH]1 (stereo in doubt) [Compound 195, N-[1-[4-[(5-cyclopropyl-2H-pyrazol-3-yl)amino]-5-ethynyl-pyrimidin-2-yl]pyrrolidin-3-yl]acetamide] | 2000 to 4000
26 | NS(=O)(=O)c1ccccc1Nc1nccc(Nc2cc(C3CC3)[nH]n2)n1 [Compound 120, 2-[[4-[(5-cyclopropyl-1H-pyrazol-3-yl)amino]pyrimidin-2-yl]amino]benzenesulfonamide] | 100 to 500
27 | COCc1cnc(N2CCC(N3CCCCC3)CC2)nc1Nc1cc(C2CC2)[nH]n1 [Compound 71, N-(5-cyclopropyl-1H-pyrazol-3-yl)-5-(methoxymethyl)-2-[4-(1-piperidyl)-1-piperidyl]-pyrimidin-4-amine] | 1000 to 2000
